One series addresses T1, mouse COX-2 (Mus musculus, UniProt Q05769).
T1 construct: Raw264.7 is a mouse macrophage cell line which expresses a high level of COX-2 protein upon lipopolysaccharide (LPS) induction; endogenous in cells; host or cells: Raw264.7 (LPS-induced)
T1 sequence (Q05769 18-604): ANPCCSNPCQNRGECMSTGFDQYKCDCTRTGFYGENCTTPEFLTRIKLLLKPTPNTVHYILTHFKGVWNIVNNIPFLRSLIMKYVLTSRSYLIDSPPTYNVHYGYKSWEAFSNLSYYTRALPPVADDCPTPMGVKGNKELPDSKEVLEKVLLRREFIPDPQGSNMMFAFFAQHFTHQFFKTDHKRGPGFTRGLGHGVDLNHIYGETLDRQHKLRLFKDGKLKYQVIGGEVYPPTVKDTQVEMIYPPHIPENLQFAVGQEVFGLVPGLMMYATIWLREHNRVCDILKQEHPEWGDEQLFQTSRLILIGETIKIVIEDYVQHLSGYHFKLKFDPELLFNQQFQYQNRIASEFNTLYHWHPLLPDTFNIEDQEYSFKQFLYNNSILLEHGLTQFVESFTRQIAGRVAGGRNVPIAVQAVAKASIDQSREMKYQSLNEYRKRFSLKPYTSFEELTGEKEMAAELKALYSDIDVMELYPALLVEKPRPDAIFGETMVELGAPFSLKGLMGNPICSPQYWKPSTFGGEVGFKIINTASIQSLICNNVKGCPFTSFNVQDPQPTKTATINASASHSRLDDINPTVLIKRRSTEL
Nature of the series: COX-2 activity (PGD2/PGE2 production) in LPS-induced Raw264.7 cells. Conditions: for IC50: 0.1 μg/mL LPS, 14 hours co-incubation; for PGD2 production, % of control / PGD2 production by Raw264.7 cells: LPS, 14 hours; for PGD2 production by Raw264.7 cells: 1 μM compound, result in words. It counts as cell-based. Here is the method:
(§1) First, the inhibitory effects of the new synthesized compounds on COX-2 were assayed in two cell lines: Raw264.7 cells and HCA-7 cells. Raw264.7 is a mouse macrophage cell line which expresses a high level of COX-2 protein upon lipopolysaccharide (LPS) induction. […] The concentration of prostaglandins (both PGD2 and PGE2) accumulated in the cell culture medium can be employed as an indicator of COX-2 activity. HCA-7 is a human colon cancer cell line in which COX-2 protein is constitutively expressed. Briefly, the cells were pre-incubated with different concentrations of the new compounds for 30 min, and then 10 μM A23187 (a calcium ionophore) was added to release membrane-bound arachidonic acid (the natural substrate of COX-2) to the cytosolic domain. The system was incubated for another 30 minutes and PGE2 concentrations in the culture medium were determined. In both cell lines, higher PGD2/PGE2 concentrations in the media meant more COX-2 activity.

A further series relates to rat liver microsomes. Nature of the series: Glucuronidation by rat liver microsomes. It counts as in vitro ADME. Here is the method:
(§2) FIG. 5A is a bar graph illustrating in vitro metabolism of phenolics via glucuronidation pathway. Glucuronidation rates of all the new locally bioavailable COX-2 inhibitors by rat liver microsomes. Additional metabolic rates of various locally bioavailable COX-2 inhibitors are in Table 3. […]. The incubation systems were: for glucuronidation, 0.88 mM magnesium chloride (MgCl2), 4.4 mM saccharolactone, 0.022 mg/mL alamethicin, 3.5 mM uridine 5′-diphospho-glucuronic acid (UDPGA), 10 μM substrates and different concentrations of microsomes in 50 mM potassium phosphate buffer (pH 7.4); for sulfation, 10 mM dithiothreitol (DTT), 5 mM MgCl2, 100 μM 3′-phosphoadenosine-5′-phosphosulfate (PAPS),10 μM substrate and different concentrations of S9 fractions in 50 mM potassium phosphate buffer (pH 7.4).
(§3) In vitro tools were employed to help predict the in vivo metabolism rates of the COX-2 inhibitors that are phenolics. The microsomes and S9 fractions prepared from colon or liver were used to determine the in vivo glucuronidation and sulfation rates of the phenolic compounds, respectively. By employing microsomes and S9 fractions prepared from both rats and humans, it could be determined if the results obtained in the rat model could be reasonably extrapolated to humans. In these experiments, raloxifene and genistein, two phenolic compounds which undergo extensive first-pass metabolism, were selected as controls.

The next series concerns human liver microsomes. Nature of the series: Glucuronidation by human liver microsomes. It counts as in vitro ADME. Here is the method:
as §2, with “FIG. 5D” for “FIG. 5A”, “of phenolics.” for “of phenolics via glucuronidation pathway.”, “of 6a1-6a4” for “of all the new locally bioavailable COX-2 inhibitors”, “by human” for “by rat”, “liver and intestinal” for “liver”, “Table 4.” for “Table 3.”
as §3
(In general: Microsomes from liver hold many membrane-bound enzymes, among them those of drug oxidation.)

In the next series the target is T2, human COX-2 (Homo sapiens, UniProt P35354).
T2 sequence (P35354 18-604): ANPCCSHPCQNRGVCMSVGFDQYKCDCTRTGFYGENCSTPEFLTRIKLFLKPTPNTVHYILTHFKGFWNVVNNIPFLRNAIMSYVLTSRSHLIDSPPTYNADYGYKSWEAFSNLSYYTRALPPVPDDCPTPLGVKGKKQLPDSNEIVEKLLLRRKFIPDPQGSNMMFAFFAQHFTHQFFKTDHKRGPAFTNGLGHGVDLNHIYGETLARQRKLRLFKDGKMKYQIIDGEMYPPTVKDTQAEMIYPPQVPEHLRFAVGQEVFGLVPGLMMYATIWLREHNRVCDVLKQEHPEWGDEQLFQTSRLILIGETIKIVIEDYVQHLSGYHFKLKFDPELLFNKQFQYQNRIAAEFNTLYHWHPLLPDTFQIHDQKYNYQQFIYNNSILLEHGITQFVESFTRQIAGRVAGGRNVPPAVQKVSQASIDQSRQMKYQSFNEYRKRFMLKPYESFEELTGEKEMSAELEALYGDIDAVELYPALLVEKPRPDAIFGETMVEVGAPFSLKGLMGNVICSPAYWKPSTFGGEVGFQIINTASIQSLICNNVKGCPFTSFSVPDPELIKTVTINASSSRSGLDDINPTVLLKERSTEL
Description: COX-2 activity (PGE2 production) in HCA-7 cells after A23187. It counts as cell-based. Details: HCA-7 is a human colon cancer cell line in which COX-2 protein is constitutively expressed; endogenous in cells; host or cells: HCA-7. Conditions: 30 min pre-incubation, 10 μM A23187, another 30 minutes. As for the experimental part:
as §1

For orientation: IC50 means the point on the concentration scale where inhibition reaches its midpoint. In the case of `Cc1ccc(-c2cc(COc3ccccc3O)nn2-c2ccc(S(N)(=O)=O)cc2)cc1` [Compound 6a1], the values for the IC50 on mouse COX-2 and on human COX-2 were 1.39 ± 0.384 µM and 0.195 ± 0.03 µM, respectively. The “PGD2 production, % of control” value at mouse COX-2 (1 μM 6a1, with glucuronidase (200 units/mL)) was 24.3 % of control; on mouse COX-2 (1 μM 6a1, without glucuronidase), 67.5 % of control. Moreover, at mouse COX-2, the “PGD2 production by Raw264.7 cells” value is “only slightly reduced”. Besides, the “Glucuronidation by rat liver microsomes (FIG. 5A)” value in the series with rat liver microsomes was “rapidly glucuronidated”. Besides, the “Glucuronidation rates by liver microsomes (Mean)” value (from here on “Glucuronidation rates”) in the series on rat liver microsomes amounted to 6299 pmol/mg/min; with human liver microsomes, 11576 pmol/mg/min.
With `Cc1ccc(-c2cc(COc3cccc(O)c3)nn2-c2ccc(S(N)(=O)=O)cc2)cc1` [Compound 6a2], on mouse COX-2, the IC50 amounted to 4.62 ± 1.34 µM and the “PGD2 production by Raw264.7 cells” value is “only slightly reduced”. For the same compound, in the series with rat liver microsomes, the “Glucuronidation by rat liver microsomes (FIG. 5A)” value is “rapidly glucuronidated” and the “Glucuronidation rates” value came out at 3570 pmol/mg/min. The “Glucuronidation rates” value in the series with human liver microsomes is 1512 pmol/mg/min. Further, at human COX-2, it took 0.134 ± 0.018 µM to reach half-maximal inhibition (IC50).
In the case of `Cc1ccc(-c2cc(COc3ccc(O)cc3)nn2-c2ccc(S(N)(=O)=O)cc2)cc1` [Compound 6a3], the IC50 on mouse COX-2 came to 0.019 ± 0.002 µM; on human COX-2 it was 0.064 ± 0.005 µM. For the same compound, the “PGD2 production by Raw264.7 cells” value on mouse COX-2 was “thoroughly inhibited”. For the same compound, the “Glucuronidation rates” value came to 590 pmol/mg/min in the series on rat liver microsomes and 60 pmol/mg/min with human liver microsomes.
